Laboratory results published in US6362181B1, “Isoquinolones” (Warner-Lambert Company, priority 1996, dated 2002).
≈ marks a conversion by molar mass, not a printed value. Read-outs that look alike come from different tables or passages of the source.

Legend:
B. subtilis RB1 = test: Antibacterial assay, standard microtitration, MIC; assay type: cell-based; conditions: Bacillus subtilis, Gram positive, read-out: Minimum Inhibitory Concentrations, B. subtilis RB1
Procedure: (§1) The compounds of the present invention were tested against an assortment of gram negative and gram positive organisms using standard microtitration techniques (Cohen, et al., Antimicrob. Agents Chemother., 1985;28:766; Heifetz, et al. Antimicrob. Agents Chemother., 1974;6:124).

E. coli B90 = test: Antibacterial assay, standard microtitration, MIC; assay type: cell-based; conditions: Escherichia coli, Gram negative, read-out: Minimum Inhibitory Concentrations, E. coli B90
Procedure: as §1

E. coli MC4100 = test: Antibacterial assay, standard microtitration, MIC; assay type: cell-based; conditions: Escherichia coli, Gram negative, read-out: Minimum Inhibitory Concentrations, E. coli MC4100
Procedure: as §1

S. aureus 29213 = test: Antibacterial assay, standard microtitration, MIC; assay type: cell-based; conditions: Staphylococcus aureus, Gram positive, read-out: Minimum Inhibitory Concentrations, S. aureus 29213
Procedure: as §1

S. pyogenes C203 = test: Antibacterial assay, standard microtitration, MIC; assay type: cell-based; conditions: Streptococcus pyogenes, Gram positive, read-out: Minimum Inhibitory Concentrations, S. pyogenes C203
Procedure: as §1

E. coli gyrase = biological target: T1, E. coli gyrase (Escherichia coli, UniProt P0AES4+P0AES6); test: DNA gyrase supercoiling inhibition assay; assay type: biochemical
T1 construct: purchased Lucent, Ltd., Leicester, UK
T1 sequence (P0AES4 whole entry, one chain of several): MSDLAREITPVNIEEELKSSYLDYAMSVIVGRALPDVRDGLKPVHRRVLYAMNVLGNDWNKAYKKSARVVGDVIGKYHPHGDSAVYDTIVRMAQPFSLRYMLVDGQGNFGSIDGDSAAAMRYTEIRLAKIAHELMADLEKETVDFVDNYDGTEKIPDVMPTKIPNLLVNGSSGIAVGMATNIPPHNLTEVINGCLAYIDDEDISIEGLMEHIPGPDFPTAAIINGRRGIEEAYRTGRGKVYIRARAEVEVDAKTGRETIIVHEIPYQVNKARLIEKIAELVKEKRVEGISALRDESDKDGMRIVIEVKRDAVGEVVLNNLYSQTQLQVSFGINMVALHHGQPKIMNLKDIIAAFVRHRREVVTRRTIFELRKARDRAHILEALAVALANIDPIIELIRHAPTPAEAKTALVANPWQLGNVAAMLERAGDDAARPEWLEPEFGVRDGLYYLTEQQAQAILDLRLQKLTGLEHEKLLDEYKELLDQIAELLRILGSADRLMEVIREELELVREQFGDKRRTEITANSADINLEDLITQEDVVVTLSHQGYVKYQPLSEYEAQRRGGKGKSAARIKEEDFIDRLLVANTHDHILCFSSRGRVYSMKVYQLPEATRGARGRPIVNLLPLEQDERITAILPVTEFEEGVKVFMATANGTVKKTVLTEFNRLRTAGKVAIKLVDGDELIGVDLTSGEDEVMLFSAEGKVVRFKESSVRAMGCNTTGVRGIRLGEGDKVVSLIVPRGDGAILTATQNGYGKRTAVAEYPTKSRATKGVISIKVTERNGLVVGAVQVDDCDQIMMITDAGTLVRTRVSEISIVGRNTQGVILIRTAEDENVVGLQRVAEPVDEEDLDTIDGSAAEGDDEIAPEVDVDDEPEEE
Procedure: The effects of test agents on the activity of DNA gyrase was determined by the supercoiling inhibition assay, following reaction conditions recommended by the enzyme supplier (Lucent, Ltd., Leicester, UK), as follows. Reactions were performed in buffer G (35 mM Tris-HCL (pH 7.5), 24 mM KCl, 4 mM MgCl2, 2 mM DTT, 1.8 mM spermidine, 1 mM ATP, 0.1 mg/mL bovine serum albumin). 0.25 μg of relaxed plasmid pBR322 (Lucent, Ltd., Leicester, UK) was reacted with 1 U E. coli gyrase (Lucent, Ltd., Leicester, UK), in the absence or presence of drugs, for 30 minutes at 37° C. Reactions were stopped by the addition of SDS and proteinase K to respective final concentrations of 1% and 0.5 mg/mL. After an additional 30 minutes at 37° C., one-tenth volume of 10×loading buffer (0.3% bromophenol blue, 16% Ficoll, 10 mM Na2HPO4) was added, and reactions were loaded onto agarose gels and electrophoresed as described above for intercalation assays. The concentration of drug inhibiting 50% of the supercoiling activity of DNA gyrase is given as an IC50 and recorded in Table 2.

E. coli topoisomerase IV = biological target: T2, E. coli topoisomerase IV (Escherichia coli, UniProt P0AFI2+P20083); test: Topoisomerase IV k-DNA decatenation assay; assay type: biochemical
T2 construct: made in house; host or cells: E. coli overexpressing strains
T2 sequence (P0AFI2 whole entry): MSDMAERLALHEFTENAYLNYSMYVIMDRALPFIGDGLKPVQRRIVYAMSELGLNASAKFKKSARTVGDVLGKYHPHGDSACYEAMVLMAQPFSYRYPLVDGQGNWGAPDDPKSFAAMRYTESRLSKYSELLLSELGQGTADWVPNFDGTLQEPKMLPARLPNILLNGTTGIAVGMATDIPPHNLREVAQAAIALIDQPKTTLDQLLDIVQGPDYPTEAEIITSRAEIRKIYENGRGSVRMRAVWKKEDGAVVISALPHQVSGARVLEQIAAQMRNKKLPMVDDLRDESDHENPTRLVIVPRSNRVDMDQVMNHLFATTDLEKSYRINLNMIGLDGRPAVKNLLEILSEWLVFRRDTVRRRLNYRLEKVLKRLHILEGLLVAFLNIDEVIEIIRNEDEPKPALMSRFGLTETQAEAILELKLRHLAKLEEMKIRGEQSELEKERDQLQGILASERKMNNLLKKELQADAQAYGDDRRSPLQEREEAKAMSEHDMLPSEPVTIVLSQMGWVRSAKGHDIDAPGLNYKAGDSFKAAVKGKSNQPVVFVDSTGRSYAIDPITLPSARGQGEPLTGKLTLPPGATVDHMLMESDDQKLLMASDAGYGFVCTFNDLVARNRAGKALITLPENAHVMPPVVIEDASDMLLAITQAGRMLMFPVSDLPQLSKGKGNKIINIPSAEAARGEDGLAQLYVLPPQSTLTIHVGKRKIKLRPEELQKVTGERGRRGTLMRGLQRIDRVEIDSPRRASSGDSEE
T2 sequence (P20083 whole entry): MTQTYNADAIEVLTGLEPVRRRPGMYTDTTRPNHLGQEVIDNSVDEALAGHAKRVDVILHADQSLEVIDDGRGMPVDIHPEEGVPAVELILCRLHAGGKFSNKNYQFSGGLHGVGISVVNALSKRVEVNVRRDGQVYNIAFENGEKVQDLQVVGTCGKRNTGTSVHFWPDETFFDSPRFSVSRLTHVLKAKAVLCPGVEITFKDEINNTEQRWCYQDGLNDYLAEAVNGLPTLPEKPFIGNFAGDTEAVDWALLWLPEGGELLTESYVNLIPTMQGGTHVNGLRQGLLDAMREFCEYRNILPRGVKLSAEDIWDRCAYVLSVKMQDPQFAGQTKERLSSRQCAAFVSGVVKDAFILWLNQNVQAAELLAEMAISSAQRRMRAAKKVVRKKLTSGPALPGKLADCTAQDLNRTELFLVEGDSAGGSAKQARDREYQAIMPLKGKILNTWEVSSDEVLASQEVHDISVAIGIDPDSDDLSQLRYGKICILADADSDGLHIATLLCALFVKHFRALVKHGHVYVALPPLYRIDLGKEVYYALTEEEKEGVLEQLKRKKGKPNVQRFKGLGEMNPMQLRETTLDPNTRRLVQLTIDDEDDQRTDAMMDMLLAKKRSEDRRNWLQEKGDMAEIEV
Procedure: Topoisomerase IV was purified from E. coli overexpressing strains and the compounds were assayed according to literature conditions (Journal of Biological Chemistry, 1993;268(32):24481). The k-DNA decatenation assay was used. Briefly, reactions were performed in buffer R (40 mM Tris-HCl (pH 7.5), 6 mM MgCl2, 10 mM DTT, 100 mM potassium glutamate, 40 μM ATP, 50 μg/mL bovine serum albumin, 10 mM NaCl). 0.2 μg of kinetoplast DNA (k-DNA; TopoGen, Columbus, Ohio) was incubated with 5 ng of E. coli topoisomerase IV in the presence or absence of test compounds for 10 minutes at 37° C. Subsequently, one-tenth volume of 10×gel loading buffer (0.3% bromophenol blue, 16% Ficoll, 10 mM Na2HPO4) was added, and samples were loaded onto horizontal 0.8% agarose gels prepared with TBE buffer and containing 0.05 μg/mL of ethidium bromide. Electrophoresis was at 70 V for 2 to 4 hours. Gels were then examined by exposure to UV light. The concentration of drug inhibiting 50% of the decantenating activity of Topoisomerase IV is given as an IC50 and recorded in Table 2.

[1] = Mammalian cell cytotoxicity, colony formation; assay type: cell-based; conditions: Chinese hamster
Procedure: Mammalian Cell Cytotoxicity
The cells were grown overnight and treated with drug for 3 hours at 37° C., at which time the compound containing media was replaced with fresh media. The cells were then incubated for 5 days and examined for colony formation.

relaxed plasmid pBR322 = test: DNA intercalation/binding assay; conditions: pBR322 with calf thymus topoisomerase I, 30 minutes at 37° C.; read-out: Drug Concentration causing 50% Intercalation of DNA
Procedure: Compounds of the present invention were evaluated for their ability to intercalate/bind to DNA, using the procedure described in Nucleic Acids Research, 1987;15(15):6713. Specifically, 0.2 μg of relaxed plasmid pBR322 (Lucent, Ltd., Leicester, UK) was treated with 2 U of calf thymus topoisomerase I (Gibco/BRL, Gaithersburg, Md.) in buffer I (10 mM Tris-HCl (Ph 7.5), 50 mM KCl, 5 mM MgCl2, 1 mM Na2EDTA, 15 μg/mL bovine serum albumin) in the presence or absence of test compounds. Reaction were incubated for 30 minutes at 37° C.; volumes were typically 30 μL. Reactions were terminated by the addition of sodium dodecylsulfate (SDS) to 1% and proteinase K to 0.5 mg/mL final concentrations. After an additional 30 minutes at 37° C., one-tenth volume of 10×concentrated loading buffer (0.3% bromophenol blue, 16% Ficoll, 10 mM Na2HPO4) was added, and samples were loaded onto horizontal 0.8% agarose gels prepared in TAE buffer. Electrophoresis was at 22 V for 14 hours. Gels were then stained by soaking for 1.5 hours in deionized water containing 0.2 μg/mL of ethidium bromide, followed by destaining in deionized water for an additional 1.5 hours. Gels were examined and photographed following exposure to UV light. The concentration of the drug which induced a 50% change in the DNA by intercalation is represented by an intercalation IC50 and is recorded in Table 4.

E. coli To1C = test: Antibacterial assay, standard microtitration, MIC; assay type: cell-based; conditions: Escherichia coli, TO1C, read-out: Minimum Inhibitory Concentrations, E. coli To1C
Procedure: as §1

[2] = Chinese hamster cells, drug for 3 hours at 37° C., colony formation after 5 days, read-out: 50% Cytotoxic Conc. in CHO cells
[3] = supercoiling of relaxed pBR322, 30 minutes at 37° C., read-out: DNA Gyrase IC50
[4] = k-DNA decatenation, 10 minutes at 37° C., read-out: Top IV IC50

| SMILES | MIC (B. subtilis RB1) [mg/L] | MIC (E. coli B90) [mg/L] | MIC (E. coli MC4100) [mg/L] | MIC (S. aureus 29213) [mg/L] | MIC (S. pyogenes C203) [mg/L] | IC50 (E. coli gyrase) [µM] | IC50 (E. coli topoisomerase IV) [µM] | IC50 at 3 h ([1]; drug for 3 hours at 37° C., colony formation after 5 days, read-out: 50% Cytotoxic Conc. in CHO cells) [µM] | IC50 (relaxed plasmid pBR322) [µM] | MIC (E. coli To1C) [mg/L] | IC50 at 3 h [1, 2] [µM] | IC50 (E. coli gyrase; [3]) [µM] | IC50 (E. coli topoisomerase IV; [4]) [µM] | IC50 at 3 h [1] [µM] |
| --- | --- | --- | --- | --- | --- | --- | --- | --- | --- | --- | --- | --- | --- | --- |
| O=C1c2cc([N+](=O)[O-])cc3cc([N+](=O)[O-])cc(c23)C(=O)N1O [Example 42, 2-Hydroxy-5,8-dinitro-benzo[de]isoquinoline-1,3-dione] | 16 (≈ 52.8 µM) | 1 (≈ 3.3 µM) | 4 (≈ 13.2 µM) | 8 (≈ 26.4 µM) | 32 (≈ 106 µM) | 20 | 20 | 160 | > 100 |  |  |  |  |  |
| CSc1ccc2c3c(cccc13)C(=O)N(O)C2=O [Example 16, 2-Hydroxy-6-methylthio-benzo[de]isoquinoline-1,3-dione] | 2 (≈ 7.71 µM) | 1 (≈ 3.86 µM) | > 64 | 8 (≈ 30.9 µM) | 64 (≈ 247 µM) |  |  |  | > 100 | 1 (≈ 3.86 µM) | > 250 |  |  |  |
| NC1CCN(c2ccc3c4c(cccc24)C(=O)N(O)C3=O)C1 (centres unmarked) [Example 62, 6-(3-Amino-pyrrolidin-1-yl)-2-hydroy-benzo[de]isoquinoline-1,3-dione] | 64 (≈ 215 µM) | 32 (≈ 108 µM) | > 64 | > 64 | 4 (≈ 13.5 µM) |  |  |  |  | 8 (≈ 26.9 µM) | 177 | 18 |  |  |
| Nc1cc2c3c(cccc3c1Cl)C(=O)N(O)C2=O [Example 28, 5-Amino-6-chloro-2-hydroxy-benzo[de]isoquinoline-1,3-dione] | 4 (≈ 15.2 µM) | 1 (≈ 3.81 µM) | 16 (≈ 60.9 µM) | 4 (≈ 15.2 µM) | > 64 |  |  |  | > 100 | 1 (≈ 3.81 µM) | > 250 | 20 | 7 |  |
| CN(C)CCN1C(=O)c2cc([N+](=O)[O-])cc3cc([N+](=O)[O-])cc(c23)C1=O [Ref #1, 5,8-dinitro-2-(2-dimethylaminoethyl)-benzo[de]isoquinoline-1,3-dione, reference compound] | 2 (≈ 5.58 µM) | 2 (≈ 5.58 µM) | 8 (≈ 22.3 µM) | 4 (≈ 11.2 µM) | 2 (≈ 5.58 µM) |  |  |  | < 10 |  |  |  |  | < 8 |
| COc1cc2c3c(cccc3c1)C(=O)N(O)C2=O [Example 13, 2-Hydroxy-5-methoxy-benzo[de]isoquinoline-1,3-dione] | 1 (≈ 4.11 µM) | 0.13 (≈ 0.534 µM) | 0.5 (≈ 2.06 µM) | 8 (≈ 32.9 µM) | > 64 |  |  |  | > 100 |  | > 250 | 11 | 29 |  |
| O=C1c2cccc3c(Br)ccc(c23)C(=O)N1O [Example 4, 6-Bromo-2-hydroxy-benzo[de]isoquinoline-1,3-dione] | 8 (≈ 27.4 µM) | 8 (≈ 27.4 µM) | > 64 | 16 (≈ 54.8 µM) | > 64 |  |  |  |  |  | > 250 |  |  |  |
| CN1CCN(c2c(Br)cc3c4c(cccc24)C(=O)N(O)C3=O)CC1 [Example 50, 5-Bromo-2-hydroxy-6-(4-methylpiperazin-1-yl)-benzo[de]isoquinoline-1,3-dione] | 4 (≈ 10.3 µM) | 2 (≈ 5.13 µM) | 32 (≈ 82 µM) | 8 (≈ 20.5 µM) | 8 (≈ 20.5 µM) |  |  |  |  | 2 (≈ 5.13 µM) | 88 | 31 | 97 |  |
| Nc1cc2c3c(cccc3c1)C(=O)N(O)C2=O [Example 8, 5-Amino-2-hydroxy-benzo[de]isoquinoline-1,3-dione] | 8 (≈ 35.1 µM) | 4 (≈ 17.5 µM) | 8 (≈ 35.1 µM) | 32 (≈ 140 µM) | > 64 |  |  |  | > 100 |  | > 500 | 7 | 65 |  |
| COc1cc2c3c(cccc3c1Br)C(=O)N(O)C2=O [Example 32, 6-Bromo-2-hydroxy-5-methoxy-benzo[de]isoquinoline-1,3-dione] | 4 (≈ 12.4 µM) | 8 (≈ 24.8 µM) | > 64 | 8 (≈ 24.8 µM) | > 64 |  |  |  | > 100 | 4 (≈ 12.4 µM) | > 250 |  |  |  |
